In the supplement of paper PMC10307832:

Experiments:
Test in all cases: relative viability (nuclei count vs DMSO), 5 days (fraction); higher = more cells survive
[1] = compound: CC(C)C[C@H](NC(=O)[C@H](Cc1ccccc1)NC(=O)c1cnccn1)B(O)O [Bortezomib] + COc1cc2c(Oc3ccc(NC(=O)C4(C(=O)Nc5ccc(F)cc5)CC4)cc3F)ccnc2cc1OCCCN1CCOCC1 [Foretinib] (partner 0.25 µM)
In short: (§1)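 Relative viability was taken as the ratio of nuclei in treated wells to nuclei in vehicle wells. Lung cancer cell lines in 1536-well plates received compounds by pin tool one day after seeding, either one drug alone or a fixed anchor-drug dose plus five library-drug doses (not always all listed) in √10 steps. Nuclei were counted on 4× images after 5 days of treatment, and values are medians of duplicate plates.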

[2] = compound: CC(C)C[C@H](NC(=O)[C@H](Cc1ccccc1)NC(=O)c1cnccn1)B(O)O [Bortezomib] + C[C@@H](Oc1cc(-c2cnn(C3CCNCC3)c2)cnc1N)c1c(Cl)ccc(F)c1Cl [Crizotinib] (partner 1 µM)
In short: as §1

[3] = compound: COC1=CC(c2cc3ccccc3[nH]2)=N/C1=C\c1[nH]c(C)cc1C [Obatoclax] + CC(=O)Nc1cccc(-n2c(=O)n(C3CC3)c(=O)c3c(Nc4ccc(I)cc4F)n(C)c(=O)c(C)c32)c1 [Trametinib] (partner 0.02 µM)
In short: as §1

[4] = compound: COC1=CC(c2cc3ccccc3[nH]2)=N/C1=C\c1[nH]c(C)cc1C [Obatoclax] + NC(=O)Nc1cc(-c2cccc(F)c2)sc1C(=O)N[C@H]1CCCNC1 [AZD7762] (partner 0.2 µM)
In short: as §1

Cell Line | relative viability ([1]; first compound 0.0002 µM) | relative viability ([1]; first compound 0.000632 µM) | relative viability ([1]; first compound 0.002 µM) | relative viability ([1]; first compound 0.006325 µM) | relative viability ([1]; first compound 0.02 µM) | relative viability ([2]; first compound 0.0002 µM) | relative viability ([2]; first compound 0.000632 µM) | relative viability ([2]; first compound 0.002 µM) | relative viability ([2]; first compound 0.006325 µM) | relative viability ([2]; first compound 0.02 µM) | relative viability ([3]; first compound 0.01 µM) | relative viability ([3]; first compound 0.03162 µM) | relative viability ([3]; first compound 0.1 µM) | relative viability ([3]; first compound 0.3162 µM) | relative viability ([3]; first compound 1 µM) | relative viability ([4]; first compound 0.01 µM) | relative viability ([4]; first compound 0.03162 µM) | relative viability ([4]; first compound 0.1 µM) | relative viability ([4]; first compound 0.3162 µM) | relative viability ([4]; first compound 1 µM)
NCI-H727 | 0.809 | 0.694 | 0.93 | 0.603 | 0.169 | 0.774 | 0.864 | 0.91 | 0.155 | 0.0951 | 0.41 | 0.393 | 0.414 | 0.404 | 0.391 | 0.747 | 0.552 | 0.827 | 0.573 | 0.573
NCI-H1944 | 0.791 | 0.818 | 0.87 | 0.724 | 0.199 | 1.06 | 1.04 | 0.899 | 1.21 | 0.142 | 0.407 | 0.391 | 0.428 | 0.392 | 0.398 | 0.481 | 0.695 | 0.492 | 0.551 | 0.494
NCI-H1437 | 1.31 | 1.24 | 1.32 | 0.185 | 0.149 | 0.966 | 0.894 | 0.92 | 0.0811 | 0.0914 | 0.512 | 0.471 | 0.642 | 0.498 | 0.359 | 1.12 | 1.16 | 1.03 | 1.08 | 0.895
NCI-H441 | 0.801 | 0.987 | 0.563 | 0.188 | 0.168 | 0.584 | 0.716 | 0.29 | 0.135 | 0.129 | 0.505 | 0.353 | 0.427 | 0.27 | 0.194 | 1.33 | 1.28 | 1.16 | 0.941 | 1.08
EMC-BAC-2 | 0.993 | 1.03 | 1.13 | 0.279 | 0.203 | 0.71 | 0.692 | 0.766 | 0.199 | 0.113 | 0.959 | 0.937 | – | 0.89 | 0.557 | 1.12 | 1.11 | 0.963 | 1.02 | 0.874
NCI-H647 | 0.904 | 1.3 | 1.25 | 0.0379 | 0.0377 | 0.993 | 0.954 | 0.627 | 0.0302 | 0.0195 | 0.406 | 0.475 | 0.422 | 0.22 | 0.127 | 0.443 | 0.606 | 0.207 | 0.253 | 0.114
CAL-12T | 1.18 | 1.07 | 1.08 | 0.743 | 0.154 | 0.888 | 0.551 | 0.61 | 0.241 | 0.1 | 0.337 | 0.431 | 0.47 | 0.246 | 0.14 | 0.616 | 0.554 | 0.531 | 0.518 | 0.294
NCI-H1792 | – | – | – | – | – | 0.893 | 0.974 | 0.952 | 0.933 | 0.729 | 0.365 | 0.302 | 0.417 | 0.509 | 0.411 | 0.732 | 0.482 | 0.513 | 0.527 | 0.213
H3255 | 0.763 | 0.994 | 0.935 | 0.638 | 0.283 | 0.734 | 0.914 | 0.452 | 0.195 | 0.208 | 0.561 | 0.629 | – | 0.631 | 0.615 | 0.874 | 0.848 | 0.725 | 0.785 | 0.762
HCC-78 | 0.505 | 0.577 | 0.492 | 0.432 | 0.254 | 0.365 | 0.328 | 0.299 | 0.148 | 0.174 | 0.774 | 0.717 | 1.03 | 0.547 | 0.898 | 0.745 | 0.669 | 0.694 | 0.633 | 0.596
NCI-H2405 | 1.02 | 1.05 | 0.86 | 0.271 | 0.188 | 0.88 | 0.83 | 0.834 | 0.24 | 0.15 | 0.6 | 0.746 | – | 0.741 | 0.861 | 0.726 | 0.857 | – | 0.924 | 0.8
NCI-H3122 | 0.889 | 0.882 | 0.994 | 0.693 | 0.0999 | 0.252 | 0.264 | 0.287 | 0.275 | 0.182 | 0.251 | 0.215 | 0.241 | 0.205 | 0.212 | 1.03 | 0.962 | 0.971 | 0.949 | 1
HCC-44 | – | – | – | – | – | 0.816 | 0.842 | 0.839 | 0.116 | 0.153 | 1.09 | 1.02 | 0.989 | 1.1 | 0.994 | 0.95 | 1.03 | 1.14 | 1.01 | 0.978
PC-3 [JPC-3] | 1.04 | 1.05 | 0.346 | 0.163 | 0.121 | 1.01 | 0.98 | 0.726 | 0.934 | 0.133 | 0.643 | 0.71 | 0.621 | 0.667 | 0.47 | 0.825 | 0.834 | 0.808 | 0.607 | 0.419
